The values that follow come from PubChem BioAssay (NCI).

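Results reflect a 48-hour exposure of cells in 96-well plates to compound at five concentrations. Abbreviation: GI50, concentration required for 50% inhibition of growth. TGI is the concentration that stops growth completely.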

A word on the TGI: it is the concentration giving total growth inhibition. Low readings indicate more potent growth arrest, high ones less potent growth arrest. By GI50 is commonly meant the concentration at which growth is held to half of that of the control.

Some test systems named below: UO-31 renal; SR leukemia; RXF 393 renal; SW-620 colon; A498 renal; SF-295 CNS; 786-0 renal; U251 CNS; OVCAR-8 ovarian; NCI/ADR-RES ovarian.
What all share (assay): DTP human tumour cell line panel, 48 h

Take `N#CCC(=O)N/N=C(/C(=O)Nc1ccccc1)C1C(=O)N(c2ccccc2)N=C1N` (configuration not stated): the TGI with UO-31 renal, with SR leukemia, in the experiment on RXF 393 renal, in the experiment on SW-620 colon, in the experiment on A498 renal and in the experiment on SF-295 CNS was greater than 100 µM throughout. Besides, the TGI in the experiment with 786-0 renal, in the experiment with U251 CNS and in the experiment on OVCAR-8 ovarian was greater than 100 µM throughout.

In the case of `Cc1cn2c(/C=N/NC3=NCCN3)c(-c3ccc(Cl)c([N+](=O)[O-])c3)nc2s1`, the GI50 in the experiment with UO-31 renal was 0.715 µM; with SW-620 colon, 0.941 µM; in the experiment on A498 renal it was 9.4 µM; in the experiment on NCI/ADR-RES ovarian, 7.75 µM; with 786-0 renal, 0.908 µM; in the experiment with U251 CNS, 0.947 µM. Also, the GI50 in the experiment on OVCAR-8 ovarian is 1.12 µM. Further, the TGI in the experiment on UO-31 renal turned out to be 1.44 µM; in the experiment with SW-620 colon, 2.46 µM; in the experiment on A498 renal, 21.4 µM; with NCI/ADR-RES ovarian, 21.5 µM; in the experiment on 786-0 renal, 2.5 µM; in the experiment with U251 CNS, 1.75 µM. In the experiment with OVCAR-8 ovarian, the concentration for total growth inhibition (TGI) came to 2.45 µM.

On to `Cc1ccc(S(=O)OC2c3ccccc3Cc3ccccc32)cc1` (configuration not stated), for which the TGI came to 45.7 µM in the experiment on UO-31 renal; 70.8 µM in the experiment with SR leukemia; 26.8 µM in the experiment on RXF 393 renal; 59.6 µM in the experiment on SW-620 colon; 42.8 µM in the experiment on A498 renal; 62.6 µM in the experiment with SF-295 CNS. In addition, the TGI worked out at 48.1 µM with 786-0 renal, 78.5 µM with U251 CNS and 28.9 µM in the experiment on OVCAR-8 ovarian.

As to `S=c1sc2sc(=S)sc2s1`, the TGI was 81.8 µM with UO-31 renal; greater than 100 µM in the experiment on SR leukemia; greater than 100 µM in the experiment on RXF 393 renal; greater than 100 µM with SW-620 colon; 48.2 µM with A498 renal; 72 µM in the experiment on SF-295 CNS. In addition, the results for the TGI in the experiment on 786-0 renal, in the experiment on U251 CNS and in the experiment on OVCAR-8 ovarian were greater than 100 µM, 49 µM and greater than 100 µM, respectively.

On to `CC12OC(C(=O)C13CC3)C1C(=O)c3cccc(O)c3C(=O)C12` (configuration not stated), for which the GI50 was 23.1 µM in the experiment with UO-31 renal; 1.43 µM in the experiment on RXF 393 renal; 4.41 µM with SW-620 colon; 16.3 µM with A498 renal; 6.9 µM in the experiment with NCI/ADR-RES ovarian; 2.68 µM in the experiment with SF-295 CNS. The GI50 is 6.45 µM with 786-0 renal, 8.29 µM with U251 CNS and 8.12 µM in the experiment with OVCAR-8 ovarian. The TGI with UO-31 renal is greater than 100 µM; in the experiment with RXF 393 renal it was 9.3 µM; in the experiment with SW-620 colon, greater than 100 µM; in the experiment with A498 renal it was 30.4 µM; in the experiment on NCI/ADR-RES ovarian, 25.3 µM; in the experiment with SF-295 CNS, 22.6 µM. Moreover, the TGI in the experiment with 786-0 renal is 19.2 µM; in the experiment on U251 CNS, greater than 58.8 µM; in the experiment on OVCAR-8 ovarian, greater than 38.5 µM.

Regarding `O=C(O)c1ccc(NCn2nc(-c3ccccc3O)oc2=S)cc1O`, the GI50 with UO-31 renal is greater than 100 µM; in the experiment with RXF 393 renal, greater than 100 µM; with SW-620 colon it was 41.9 µM; in the experiment on NCI/ADR-RES ovarian, greater than 100 µM; in the experiment on SF-295 CNS, greater than 100 µM; in the experiment on 786-0 renal it was 95.2 µM. For the same molecule, the GI50 in the experiment on U251 CNS was 78.1 µM; in the experiment with OVCAR-8 ovarian it was greater than 100 µM. Besides, the TGI in the experiment on UO-31 renal, with RXF 393 renal, with SW-620 colon, in the experiment with NCI/ADR-RES ovarian, with SF-295 CNS and in the experiment with 786-0 renal was greater than 100 µM in each case. For the same molecule, the TGI in the experiment on U251 CNS and in the experiment on OVCAR-8 ovarian was greater than 100 µM throughout.

`Fc1ccc(-c2nn3c(COc4ccccc4Cl)nnc3s2)cc1Oc1ccccc1`: the GI50 was 27.1 µM in the experiment on UO-31 renal; greater than 100 µM in the experiment on RXF 393 renal; greater than 100 µM in the experiment on SW-620 colon; 67.6 µM with A498 renal; 26.6 µM in the experiment on NCI/ADR-RES ovarian; 18.9 µM in the experiment on SF-295 CNS. Besides, the GI50 was 21.3 µM in the experiment on 786-0 renal, 18.4 µM in the experiment on U251 CNS and 49.9 µM in the experiment on OVCAR-8 ovarian. Also, the TGI in the experiment with UO-31 renal was greater than 100 µM; in the experiment with RXF 393 renal, greater than 100 µM; with SW-620 colon it was greater than 100 µM; in the experiment with A498 renal it was greater than 100 µM; in the experiment with NCI/ADR-RES ovarian, 76.5 µM; in the experiment on SF-295 CNS, 50.9 µM. The values for the TGI in the experiment with 786-0 renal, with U251 CNS and in the experiment with OVCAR-8 ovarian were 46.7 µM, 41.2 µM and greater than 100 µM, respectively.

On to `CC(=O)NS(=O)(=O)c1ccc(-n2nc(-c3ccccc3)cc2-c2cc(O)ccc2O)cc1`, for which the GI50 is greater than 100 µM with UO-31 renal; greater than 100 µM in the experiment with SR leukemia; greater than 100 µM in the experiment on SW-620 colon; greater than 100 µM in the experiment with NCI/ADR-RES ovarian; greater than 100 µM with SF-295 CNS; 57.5 µM in the experiment on 786-0 renal. The GI50 with U251 CNS is 61.6 µM; with OVCAR-8 ovarian it was greater than 100 µM. Moreover, the TGI with UO-31 renal, with SR leukemia, in the experiment on SW-620 colon, in the experiment with NCI/ADR-RES ovarian, with SF-295 CNS and in the experiment on 786-0 renal was greater than 100 µM each time. Besides, the TGI with U251 CNS and in the experiment on OVCAR-8 ovarian was greater than 100 µM throughout.

For `COc1cc2cc(Oc3ccc(NC(=O)Nc4ccc(F)c(C(F)(F)F)c4)cc3)c(C)nc2cc1OCCN1CCOCC1`, the GI50 was 1.71 µM with UO-31 renal; 1.78 µM in the experiment with RXF 393 renal; 3.34 µM in the experiment with SW-620 colon; 2.8 µM in the experiment with A498 renal; 2.56 µM with NCI/ADR-RES ovarian; 1.35 µM with SF-295 CNS. The GI50 in the experiment on 786-0 renal was 1.73 µM; in the experiment with U251 CNS, 2.83 µM; with OVCAR-8 ovarian, 2.73 µM. Also, the TGI came out at 10.6 µM in the experiment with UO-31 renal; 3.94 µM in the experiment on RXF 393 renal; 9.86 µM in the experiment on SW-620 colon; 10.2 µM in the experiment on A498 renal; 12.1 µM in the experiment on NCI/ADR-RES ovarian; 4.22 µM in the experiment on SF-295 CNS. Further, the values for the TGI in the experiment on 786-0 renal, with U251 CNS and in the experiment with OVCAR-8 ovarian were 3.44 µM, 11.1 µM and greater than 100 µM, respectively.
